Results on two molecules are retold here after patent publication US9603827B2, “Method for preventing and/or treating hairy wart disease” (Mitsubishi-Kagaku Foods Corporation, priority 2014, dated 2017).

Holding throughout (format): in vivo
Assay [1] concerns dairy cows afflicted with digital dermatitis. Put plainly: Effect of patch on digital dermatitis of dairy cows (Example 1). The following applies: patch on affected area, assessed two days later. The source says: 3 g of a powdered composition of allyl isothiocyanate (trade name: “Wasaouro Powder”, Mitsubishi-Kagaku Foods Corp.) were placed on a piece of absorbent cotton and pressed against the affected area of dairy cows afflicted with digital dermatitis followed by wrapping with an elastic bandage to administer the allyl isothiocyanate to the affected area in the form of a patch and assessing the effect two days later. In addition, the effect of respectively administering sodium alginate and slaked lime using the same method was also assessed two days later.

The test system of assay [2] is dairy cows afflicted with hairy hoof wart attack. Put plainly: Effect of patch on hairy hoof wart attack of dairy cows (Example 2). The following applies: assessed one week later. An excerpt: 3 g of a powdered composition of allyl isothiocyanate (trade name: “Wasaouro Powder”, Mitsubishi-Kagaku Foods Corp.) were placed on a piece of absorbent cotton and pressed against the affected area of dairy cows (5) afflicted with hairy hoof wart attack followed by wrapping with an elastic bandage to administer the allyl isothiocyanate to the affected area in the form of a patch and assessing the effect one week later. […] Hairy hoof wart attack is a hoof and leg disease having lesions that are more serious and cover a broader area in comparison with digital dermatitis, and when considering that an effective preventive and/or treatment method has currently yet to be found, this effect of allyl isothiocyanate can be said to be groundbreaking.

In the next assay the test system is Acholeplasma vituli. Put plainly: 16S rRNA clone analysis of digital dermatitis lesion before and after treatment. The conditions noted are these: Table 3 cow. The source says: (§1) Samples were collected from two cows afflicted with digital dermatitis. First, a digital dermatitis lesion was collected from the affected area by biopsy prior to treatment. After collecting the lesion, a powdered composition containing allyl isothiocyanate (trade name: “Wasaouro Powder”, Mitsubishi-Kagaku Foods Corp.) was applied to the affected area. After confirming improvement of clinical symptoms seven days later, a sample was again collected by biopsy. The stage of digital dermatitis at the time of sampling was assessed macroscopically. In order to investigate the predominant microbial species in the lesion before and after treatment, DNA was extracted from four specimens of digital dermatitis lesion materials of the two cows before and after treatment, low cycle number PCR (25 cycles or less) was carried out using universal primers to 16S rRNA gene, and the amplified gene fragment was cloned in an Escherichia coli vector. 192 clones were randomly harvested for each specimen to determine the base sequence of the amplified 16S rRNA gene. Among these, a homology analysis was performed by a BLAST search using clones from which data was obtained for base sequences in excess of 1450 bp, followed by determination of microbial species.

The subject of another assay is Anaerovorax odorimutans. Described as above. The following applies: Table 3 cow.
Source text: as §1

Another assay relates to Clostridiaceae. Described as above. The conditions noted are these: Table 3 cow.
Source text: as §1

Another assay concerns Eubacteriaceae. The description is as above.
Source text: as §1

The next assay has as its system Psychrobacter. The description is as above. The conditions noted are these: Table 3 cow.
Source text: as §1

In assay [3] the test system is Treponema. The assay is described as above.
Source text: as §1

Assay [4] relates to Treponema. Put plainly: Microbial score of affected area with and without hoof trimming (Example 4). The following applies: observed after 2, 4 and 6 days. The source says:
(§2) Allyl isothiocyanate (trade name: “Wasaouro Powder”, Mitsubishi-Kagaku Foods Corp.) was applied to the affected areas of dairy cows afflicted with digital dermatitis, and microbial scores and changes in pain at the lesions were observed after 2, 4 and 6 days.
(§3) Comparisons were made under the following conditions A to D in order to confirm differences in effects attributable to the presence or absence of hoof trimming.
(§4) A: Allyl isothiocyanate applied to affected area after hoof trimming
(§5) B: Allyl isothiocyanate applied to affected area without performing hoof trimming
(§6) C: Allyl isothiocyanate applied after hoof trimming and cleaning the affected area with Oxydol disinfectant
(§7) D: Affected area cleaned with Oxydol disinfectant after hoof trimming (without applying allyl isothiocyanate)
Microbial scores of the affected areas were obtained by scoring the number of microorganisms from a stamped specimen of the heel bulb in the manner indicated below.
3: Treponema covered the entire field of view
2: Large number of Treponema confirmed in the field of view
1: Treponema only occasionally confirmed
0: Treponema unable to be confirmed

Assay [5] deals with dairy cows afflicted with digital dermatitis. In words: Pain at affected area by pressure gauge, with and without hoof trimming (Example 4). The following applies: applied after hoof trimming; observed after 2, 4 and 6 days.
Source text: as §2, §3, §4, §5, §6, §7
Changes in pain were evaluated based on the level of pressure at which pain was felt by tightly squeezing the affected area with a pressure gauge. Larger values indicate lower levels of pain.

Setting [6] is: 3 g powder patch, five dairy cows.
The mark [7] stands for this setting: after treatment (n = 178), seven days.
Setting [8] is: Table 2 cow, after treatment (n = 171), seven days.
The mark [9] stands for this setting: Table 2 cow, before treatment (n = 181).
[10] abbreviates: Table 3 cow, after treatment (n = 178), seven days.
Setting [11] is: Table 3 cow, before treatment (n = 180).

Turning to `C=CCN=C=S` [Allyl isothiocyanate, allyl isothiocyanate], the “Degree of effect: Effective (number of digits)” value in [1] worked out at 1 digits. In addition, the “Degree of effect: Ineffective (number of digits)” value in assay [1] is given as 0 digits. Also, the “Degree of effect: Slightly effective (number of digits)” value in assay [1] was 0 digits. Besides, the “Degree of effect: Very effective (number of digits)” value in assay [1] turned out to be 2 digits. Moreover, the “percentage of digits for which the degree of the effect was effective or better” value in assay [1] was 100%. Further, in assay [2] (setting [6]), the “cows in which the affected area demonstrated improvement” value is given as “one”. For the same molecule, the “cows in which the affected area healed” value in assay [2] (setting [6]) is on record as “two”. Moreover, the “cows in which the affected area was unchanged” value in [2] (setting [6]) is “one”. Also, the “cows with effects categorized as improved or better” value in assay [2] (of the five dairy cows) was “four”. Also, the results for the “percentage of clones detected: Acholeplasma vituli” value in the assay on Acholeplasma vituli (setting [7]) and in the assay on Acholeplasma vituli (before treatment (n = 180)) were 0% and 3.9%, respectively. Besides, the “percentage of clones detected: Anaerovorax odorimutans” value with Anaerovorax odorimutans (setting [7]) was 0%; in the assay on Anaerovorax odorimutans (before treatment (n = 180)) it was 10.0%. In addition, the “percentage of clones detected: Clostridiaceae” value turned out to be 5.6% in the assay with Clostridiaceae (setting [7]) and 26.7% in the assay on Clostridiaceae (before treatment (n = 180)). Further, the “percentage of clones detected: Eubacteriaceae” value is 0.6% with Eubacteriaceae (setting [8]), 5.5% in the assay on Eubacteriaceae (setting [9]), 0.6% in the assay on Eubacteriaceae (setting [10]) and 10.6% in the assay on Eubacteriaceae (setting [11]). The “percentage of clones detected: Psychrobacter” value with Psychrobacter (setting [7]) came to 0%; in the assay with Psychrobacter (before treatment (n = 180)), 2.2%. In addition, the “percentage of clones detected: Treponema” value in the assay on Treponema [3] (setting [8]) turned out to be 7.0%; in the assay on Treponema [3] (setting [9]), 79.6%; in the assay on Treponema [3] (setting [10]), 0%; with Treponema [3] (setting [11]) it was 37.8%. The “number of microorganisms at the lesion” value is given as “decrease” in the assay on Treponema [4] (administered after hoof trimming) and “decrease further” in the assay with Treponema [4] (applied after cleaning the affected area with Oxydol disinfectant). In addition, the pain result in assay [5] was “decrease”.
Consider `[Ca+2].[OH-].[OH-]` [Slaked lime, slaked lime, reference compound], for which, in assay [1], the “Degree of effect: Effective (number of digits)” value is listed as 2 digits, the “Degree of effect: Ineffective (number of digits)” value came to 0 digits, the “Degree of effect: Slightly effective (number of digits)” value is listed as 5 digits and the “Degree of effect: Very effective (number of digits)” value was 0 digits. Also, the “percentage of digits for which the degree of the effect was effective or better” value in assay [1] is given as 29%.
